Results from US7781393B2, “Methods for inhibiting tumor cell growth” (Dana-Farber Cancer Institute, Inc., priority 2004, dated 2010).

Columns and labels:
[1] = tested on: MM-1S-Luc human MM cells; experiment: Model of diffuse skeletal MM lesions, bioluminescence imaging and survival; type: in vivo
Protocol: Briefly, male (6 to 8-week old) SCIDI/NOD mice (Jackson Laboratories, Bar Harbor, Me.) were sublethally irradiated (300 rads) using ^137CS γ-irradiator source. After 3-6 hours, 5×10^6 MM-1S-luc^+ cells in 100 μL of phosphate-buffered saline (PBS) was injected via the tail vein into each mouse. Mice were monitored daily for changes in their body weight, signs of infection, and paralysis, and weekly by whole-body bioluminescence imaging utilizing the In Vivo Imaging System (IVIS, Xenogen Corp, Alameda, Calif.) with total imaging time of 2 min, bin 2. Total body bioluminescence was quantified by integrating the photonic flux (photons/sec) through a standardized region of interest encompassing each mouse (Living Images, Xenogen). […] Melphalan (Alkeran, GlaxoSmithKline, Research Triangle Park, N.C.) was formulated according to manufacturer's instructions, and was administered by i.p. injection. All animal studies were approved by the Dana-Farber Cancer Institute Animal Care and Use Committee.
Statistical significance for in vitro assay results was examined by 2-way analysis of variance, followed by Duncan's post-hoc test. Statistical significance for bioluminescence imaging studies was determined by two-tailed student's t-test. In all analyses, P<0.05 was considered statistically significant. For assessment of in vivo anti-tumor activity, the overall survival of mice was defined as the time between i.v. injection of tumor cells and sacrifice or, death and was compared across different treatment groups with Kaplan-Meier survival analysis.
The in vivo anti-tumor activity of IGF-1R inhibition in a mouse xenograft model of MM was examined. The MM cell line MM-1S was engineered to stably express firefly luciferase fused to a selectable marker (neomycin phosphotransferase or enhanced GFP). Sub-lethally irradiated NOD/SCID mice were injected intravenously with MM-1S-Luc cells and tumor distribution was followed by serial whole-body non-invasive imaging of visible light emitted by luciferase-expressing tumor cells upon injection of mice with luciferin.
Sublethally irradiated NOD/SCID mice were injected with MM1S-Luc cells, and serially imaged to monitor tumor burden. After 2-3 weeks, cohorts of mice with similarly increasing tumor burden were divided into control and treatment groups.

[2] = tested on: MM cells, prostate cancer cells, SK-N-MC sarcoma cells; experiment: Sensitization of tumor cells to other anti-cancer therapies in vitro; type: cell-based, human; conditions: MM cells to doxorubicin, melphalan, dexamethasone, TRAIL/Apo2L, PS-341, SK-N-MC to Fas ligation
Protocol: The ability of IGF-1R inhibitors to sensitize tumor cells to other anti-cancer therapies in vitro was determined.

[3] = tested on: MM-1S cells; experiment: Immunoblotting of anti-apoptotic signaling cascades; type: cell-based, human; conditions: 500 nM, serum-containing medium
Protocol: Flow cytometric analyses for IGF-1R, and IGF-2R were performed as previously described on a EPICS-XL-MCL flow cytometer (Beckman Coulter). Previously described protocols were applied for immunoblotting analyses; TRAP telomerase activity assay; 20S proteasome chymotryptic activity assay; DNA binding activity ELISAs for quantitative assessments of NF-κB and HIF-1a transcriptional activities. VEGF and IGF-1 ELISAs were performed according to manufacturer's instructions (R&D Systems, Minneapolis, Minn.).

[4] = tested on: MM cells; experiment: Gene expression and proteomic profiling of IGF-1R inhibition; type: cell-based, human; conditions: expression profiling, proteomic analyses, confirmatory assays
Protocol: Subsequent analysis of scanned image output files were analyzed with Affymetrix GeneChip Microarray Analysis Suite 5.0 software (Affymetrix), normalized and analyzed by hierarchical clustering, functional clustering and relevance network algorithms, as in previous studies. High-throughput global proteomic analysis of the signaling state of IGF-1R-inhibitor-treated MM cells was performed by multiplex-immunoblotting arrays using the KPKS-1.0 and KPSS-1.0 platforms, as previously described (Mitsiades C S et al. Semin Oncol. April 2003; 30(2): 156-60 and Mitsiades N et al. Blood. Mar. 15, 2003; 101(6): 2377-80).
Total RNA was extracted and purified with the Qiagen RNeasy kit (Qiagen, San Diego, Calif.). Five micrograms of total RNA was used in the first-strand cDNA synthesis with T7-d(T)24 primer ([…]-(dT)24) (SEQ ID NO: 1) and Superscript II (GIBCO-BRL, Rockville, Md.). The second-strand cDNA synthesis was carried out at 16° C. by adding Escherichia coli DNA ligase, E. coli DNA polymerase I, and RNase H to the reaction, followed by T4 DNA polymerase to blunt the ends of newly synthesized cDNA. The cDNA was purified through phenol/chloroform and ethanol precipitation. […] Scanned image output files were visually examined for major chip defects and hybridization artifacts and then analyzed with Affymetrix GeneChip® (array) Microarray Analysis Suite 5.0 software (Affymetrix). […]

[5] = monotherapy 10 mg/kg i.p. twice daily

Question: Which treatment-related toxicity ([1]; 10 mg/kg i.p. twice daily) does the source give for `Nc1ncnc2c1c(-c1cccc(OCc3ccccc3)c1)cn2[C@H]1C[C@H](CN2CCCC2)C1` [ADW-742, trans-5-(3-benzyloxy-phenyl)-7-(3-pyrrolidin-1-ylmethyl-cyclobutyl)-7H-pyrrolo[2,3-d]pyrimidin-4-ylamine] here?
Answer: no other significant treatment-related toxicity

Question: What about the median overall survival ([1]; 10 mg/kg i.p. twice daily for 19 days, control 21 days, P=0.02 log-rank) of the same compound?
Answer: 38 days

Question: What about the “anti-tumor activity, pulsatile administration” value ([1]; 10 mg/kg i.p. twice daily, 4 days per week, alone) of the same compound?
Answer: no significant anti-tumor activity

Question: What about the body weight ([1]; 10 mg/kg i.p. twice daily, between treatment groups, P=0.82) of the same compound?
Answer: no difference in body weight

Question: What about the “survival, combination with melphalan” value ([1]; melphalan 2.5 mg i.p once a week followed by ADW-742 10 mg/kg i.p. twice daily, 4 days per week) of the same compound?
Answer: synergistic effect in prolonging the survival of mice

Question: And the survival of mice [1, 5]?
Answer: prolongs the survival of mice

Question: What about the tumor growth [1, 5] of the same compound?
Answer: significantly suppresses tumor growth

Question: What about the “anti-tumor efficacy, further studies” value ([1]; second study same i.p. dosing, third study orally 50 mg/kg twice daily) of the same compound?
Answer: Consistent results

Question: What about the “sensitivity of tumor cells to other anti-cancer therapies” value [2] of the same compound?
Answer: increases the sensitivity

Question: What about the “Akt, MEK1/2 and FKHRL-1 phosphorylation” value [3] of the same compound?
Answer: early suppression

Question: What about the “intracellular levels of Akt, Bmx, IKK-α and RANKL” value [3] of the same compound?
Answer: decrease

Question: What about the “proliferative/anti-apoptotic molecular events associated with exposure to IGF-1 or serum” value [4] of the same compound?
Answer: suppressed
